Data published in ChEMBL document CHEMBL1140826, “Synthesis of benzamide derivatives as TRPV1 antagonists” (Bioorg Med Chem Lett, 2008).
pIC50: −log10 of the molar value.

target: Transient receptor potential cation channel subfamily V member 1 (Homo sapiens, UniProt Q8NER1); test: Antagonist activity at human TRPV1 assessed as inhibition of capsaicin-induced calcium influx in HEK293 cells; assay type: functional, cell-based
Sequence (Q8NER1 whole entry): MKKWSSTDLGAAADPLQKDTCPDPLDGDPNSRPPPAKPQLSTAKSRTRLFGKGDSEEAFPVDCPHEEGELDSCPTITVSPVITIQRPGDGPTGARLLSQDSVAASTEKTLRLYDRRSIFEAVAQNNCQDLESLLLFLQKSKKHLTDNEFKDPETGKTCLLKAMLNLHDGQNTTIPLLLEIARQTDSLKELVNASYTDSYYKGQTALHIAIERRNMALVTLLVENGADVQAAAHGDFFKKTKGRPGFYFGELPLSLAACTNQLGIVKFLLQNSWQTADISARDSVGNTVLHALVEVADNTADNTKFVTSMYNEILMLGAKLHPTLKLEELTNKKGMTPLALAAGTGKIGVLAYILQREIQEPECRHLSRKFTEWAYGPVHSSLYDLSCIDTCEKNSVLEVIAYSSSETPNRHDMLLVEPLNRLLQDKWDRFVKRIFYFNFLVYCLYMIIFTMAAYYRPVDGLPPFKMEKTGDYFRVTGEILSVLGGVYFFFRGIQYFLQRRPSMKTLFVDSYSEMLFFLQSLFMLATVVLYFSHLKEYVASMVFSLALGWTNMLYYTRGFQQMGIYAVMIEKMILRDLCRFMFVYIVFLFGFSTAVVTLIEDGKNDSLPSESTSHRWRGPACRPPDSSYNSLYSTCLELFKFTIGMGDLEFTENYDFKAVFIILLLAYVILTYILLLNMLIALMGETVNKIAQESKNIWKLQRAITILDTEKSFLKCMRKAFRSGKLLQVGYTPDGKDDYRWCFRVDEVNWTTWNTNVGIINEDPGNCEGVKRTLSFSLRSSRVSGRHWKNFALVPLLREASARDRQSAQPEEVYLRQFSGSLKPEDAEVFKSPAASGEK

Going from CC(C)(C)c1cc(NC(=O)c2ccc(OC(F)(F)F)cc2)cc(C(C)(C)C)c1 to CC(C)(C)c1ccc(NC(=O)c2ccc(OC(F)(F)F)cc2)cc1, the pIC50 rises from less than 5.00 to 6.92. The second is the more potent here.

CC(C)(C)c1ccc(NC(=O)c2ccc(C(F)(F)F)cc2)cc1 and CC(C)(C)c1ccc(NC(=O)c2ccc(SC(F)(F)F)cc2)cc1 are within 0.2 log units of each other in pIC50: 6.66 for the first, 6.60 for the second.

Compared with CC(Cc1ccnc2ccc(O)cc12)NC(=O)c1ccc(OC(F)(F)F)cc1 (stereo not drawn), CC(Cc1cccc2ccc(O)cc12)NC(=O)c1ccc(OC(F)(F)F)cc1 (stereo not drawn) is 0.96 log units higher in pIC50: 6.13 for the first, 7.09 for the second.

Going from COc1ccc2[nH]cc(CCNC(=O)c3ccc(-c4ccccc4)cc3)c2c1 to COc1ccc2[nH]cc(CCNC(=O)c3ccc(Oc4ccccc4)cc3)c2c1, the pIC50 falls from 6.43 to 5.72 (0.71 log units).

Going from O=C(NCC1CCCc2[nH]c3ccc(O)cc3c21)c1ccc(OC(F)(F)F)cc1 (stereo not drawn) to O=C(NCCC1CCCc2ccc(O)cc21)c1ccc(OC(F)(F)F)cc1 (stereo not drawn), the pIC50 falls from 6.70 to 5.87 (0.83 log units).

CN(C(=O)c1ccc(OC(F)(F)F)cc1)c1ccc(C(C)(C)C)cc1 and CC(C)(C)c1ccc(NC(=O)c2ccc(OCC(F)(F)F)cc2)cc1 cannot be ordered by pIC50: less than 5.00 for the first, less than 5.00 for the second.

First: Cn1cc(CCNC(=O)c2ccc(C(F)(F)F)cc2)c2ccccc21
Second: O=C(NCCc1c[nH]c2ccccc12)c1ccc(OC(F)(F)F)cc1
The pIC50 of the first is lower: less than 5.00 for the first, 5.13 for the second.

O=C(Nc1ccc(I)cc1)c1ccccc1C(F)(F)F and O=C(Nc1ccc(I)cc1)c1cccc(C(F)(F)F)c1 cannot be ordered by pIC50: less than 5.00 for the first, less than 5.00 for the second.

First: O=C(Nc1ccc(C(F)(F)F)cc1)c1ccc(I)cc1
Second: O=C(Nc1ccc(I)cc1)c1ccc(OC(F)(F)F)cc1
The pIC50 of the first is lower: less than 5.00 for the first, 6.55 for the second. The second is the more potent here.

First: COc1ccc2[nH]cc(CCNC(=O)c3ccc(OCC(F)(F)F)nc3)c2c1
Second: COc1ccc2[nH]cc(CCNC(=O)c3ccc(C(F)(F)F)nc3)c2c1
The pIC50 of the first is higher: 5.47 for the first, less than 5.00 for the second. The first is the more potent here.

Compared with O=C(NCCc1ccccc1Cl)c1ccc(OC(F)(F)F)cc1, O=C(NCCc1ccc(Cl)cc1Cl)c1ccc(OC(F)(F)F)cc1 is 0.52 log units lower in pIC50: 6.11 for the first, 5.59 for the second. The first is the more potent here.

Going from O=C(Nc1ccc(-c2ccccc2)cc1)c1ccc(OC(F)(F)F)cc1 to O=C(NCCc1cccc2ccccc12)c1ccc(OC(F)(F)F)cc1, the pIC50 rises from less than 5.00 to 5.59. The second is the more potent here.

Going from COc1ccc2cccc(CCNC(=O)c3ccc(OC(F)(F)F)cc3)c2c1 to O=C(NCCc1cccc2ccncc12)c1ccc(OC(F)(F)F)cc1, the pIC50 falls from 5.85 to 5.17 (0.68 log units).

Going from COc1ccc2[nH]cc(CCNC(=O)c3ccc(C4CCCCC4)cc3)c2c1 to COc1ccc2[nH]cc(CCNC(=O)c3ccc(C(F)(F)F)cc3)c2c1, the pIC50 falls from 5.94 to 5.68 (0.26 log units). The first is the more potent here.

Compared with COc1ccc2[nH]cc(CCNC(=O)c3ccc(CC(C)C)cc3)c2c1, COc1ccc2[nH]cc(CCNC(=O)c3ccc(OCCN(C)C)cc3)c2c1 is lower in pIC50: 5.46 for the first, less than 5.00 for the second. The first is the more potent here.

Compared with COc1ccc2[nH]cc(CCNC(=O)c3ccc(-c4ccccc4)nc3)c2c1, COc1ccc2[nH]cc(CCNC(=O)c3ccc(OC(F)(F)C(F)F)cc3)c2c1 is 0.39 log units higher in pIC50: 5.40 for the first, 5.79 for the second. The second is the more potent here.

Going from O=C(NCCc1ccc(O)c2ccc(O)cc12)c1ccc(OC(F)(F)F)cc1 to O=C(NCCc1c[nH]c2ccc(F)cc12)c1ccc(OC(F)(F)F)cc1, the pIC50 falls from 7.12 to 5.58 (1.54 log units).

Going from CC(C)(C)c1ccc(CC(=O)c2ccc(C(F)(F)F)cc2)cc1 to O=C(Nc1ccc(I)cc1)c1ccc(C(=O)C(F)(F)F)cc1, the pIC50 rises from less than 5.00 to 6.10.

First: CC(CNC(=O)c1ccc(OC(F)(F)F)cc1)c1c[nH]c2ccc(O)cc12 (stereo not drawn)
Second: Cc1[nH]c2ccc(O)cc2c1C(C)CNC(=O)c1ccc(OC(F)(F)F)cc1 (stereo not drawn)
The pIC50 of the first is 0.78 log units higher: 6.26 for the first, 5.48 for the second.

First: COc1ccc2ccn(CCNC(=O)c3ccc(OC(F)(F)F)cc3)c2c1
Second: COc1ccc2c(c1)c1c(n2C)CCCC1CNC(=O)c1ccc(OC(F)(F)F)cc1 (stereo not drawn)
The pIC50 of the first is 0.86 log units lower: 5.45 for the first, 6.31 for the second. The second is the more potent here.

Going from CC(C)(C)c1ccc(-c2cc3cc(C(C)(C)C)ccc3[nH]2)cc1 to FC(F)C(F)(F)Oc1ccc(-c2nc3cc(Br)ccc3[nH]2)cc1, the pIC50 rises from less than 5.00 to 6.42.

CS(=O)(=O)c1ccc(C(=O)Nc2ccc(I)cc2)cc1 gave a pIC50 of less than 5.00.
